In publication PMC5148673 (European journal of medicinal chemistry, 2016):

What was measured:
Type in all cases: cell-based, human
BT-474 cells = test: Flow cytometry cell cycle analysis
SKBR-3 cells = test: Confocal microscopy intracellular distribution, SKBR-3; details: SKBR-3, 5 μM, 30 min, 37 °C
MCF-7 cells = test: Confocal microscopy intracellular distribution, MCF-7; details: MCF-7, 30 min, 4 h, 24 h incubation

SMILES	effect on cell cycle inhibition (BT-474 cells)	DOX fluorescence distribution in cells (SKBR-3 cells)	DOX fluorescence in cells (MCF-7 cells)
N=C(N)NCCC[C@H](N)C(=O)N[C@@H](CC(=O)N[C@@H](Cc1ccccc1)C(=O)O)c1cccc2ccccc12 [Compound 5, Arg-aminonaphthylpropionic acid-Phe]	no significant effect on cell cycle inhibition	–	–
COc1cccc2c1C(=O)c1c(O)c3c(c(O)c1C2=O)C[C@@](O)(C(=O)CO)C[C@@H]3O[C@H]1C[C@H](N)[C@H](O)[C@H](C)O1 [DOX, Doxorubicin]	–	strong DOX fluorescence in both the nucleus and cytoplasm	fluorescence was seen in 30 min
